The source of these data is patent US20190152957A1, “PYRIDIN-3-YL ACETIC ACID DERIVATIVES AS INHIBITORS OF HUMAN IMMUNODEFICIENCY VIRUS REPLICATION” (ViiV HEALTHCARE UK (NO.5) LIMITED, priority 2016, published 2019).

The assay relates to recombinant NL-RLuc virus (HIV NL4-3 with Renilla Luciferase gene) in MT-2 cells. As to the kind of experiment: Inhibition of HIV replication (NL-RLuc virus, luciferase readout in MT-2 cells). It is filed as cell-based. The conditions noted are these: MT2, 120 h. An excerpt: Inhibition of HIV Replication:
A recombinant NL-RLuc proviral clone was constructed in which a section of the nef gene from NL4-3 was replaced with the Renilla Luciferase gene. This virus is fully infectious and can undergo multiple cycles of replication in cell culture. In addition, the luciferous reporter provides a simple and easy method for quantitating the extent of virus growth and consequently, the antiviral activity of test compounds. The plasmid pNLRLuc contains the proviral NL-Rluc DNA cloned into pUC18 at the PvuII site. The NL-RLuc virus was prepared by transfection of 293T cells with the plasmid pNLRLuc. Transfections were performed using the LipofectAMINE PLUS kit from Invitrogen (Carlsbad, Calif.) according to the manufacturer and the virus generated was titered in MT-2 cells. For susceptibility analyses, the titrated virus was used to infect MT-2 cells in the presence of compound, and after 5 days of incubation, cells were processed and quantitated for virus growth by the amount of expressed luciferase. Assay media was RPMI 1640 supplemented with 10% heat inactivated fetal bovine serum (FBS), 100 units/ml penicillin G/100 units/ml streptomycin, 10 mM HEPES buffer pH 7.55 and 2 mM L-glutamine. The results from at least 2 experiments were used to calculate the EC50 values. Luciferase was quantitated using the Dual Luciferase kit from Promega (Madison, Wis.). Susceptibility of viruses to compounds was determined by incubation in the presence of serial dilutions of the compound. The 50% effective concentration (EC50) was calculated by using the exponential form of the median effect equation where (Fa)=1/[1+(ED50/drug conc.)^m](Johnson V A, Byington R T. Infectivity Assay. In Techniques in HIV Research. ed. Aldovini A, Walker BD. 71-76. New York: Stockton Press. 1990). Activity equal to A refers to a compound having an EC50≤100 nM, while B and C denote compounds having an EC50 between 100 nM and 1 uM (B) or >1 uM (C).

Like-named read-outs stand apart in the source and are kept apart here.

For the molecule `Cc1cccc(-n2cc(CN3CCc4cc(-c5c(C)nc(C)c([C@H](OC(C)(C)C)C(=O)O)c5N5CCC(C)(C)CC5)ccc4C3)cn2)c1` [Compound 41, (S)-2-(tert-butoxy)-2-(4-(4,4-dimethylpiperidin-1-yl)-2,6-dimethyl-5-(2-((1-(m-tolyl)-1H-pyrazol-4-yl)methyl)-1,2,3,4-tetrahydroisoquinolin-6-yl)pyridin-3-yl)acetic acid], the EC50 (read-out: Activity) was less than 0.1 µM.
Still for that read-out and setting: the same measure for `Cc1nc(C)c([C@H](OC(C)(C)C)C(=O)O)c(N2CCC(C)(C)CC2)c1-c1ccc2c(c1)CCN(Cc1nnn[nH]1)C2` [Compound 46, (S)-2-(5-(2-((1H-tetrazol-5-yl)methyl)-1,2,3,4-tetrahydroisoquinolin-6-yl)-4-(4,4-dimethylpiperidin-1-yl)-2,6-dimethylpyridin-3-yl)-2-(tert-butoxy)acetic acid]: less than 0.1 µM; for `Cc1nc(C)c([C@H](OC(C)(C)C)C(=O)O)c(N2CCC(C)(C)CC2)c1-c1ccc2c(c1)CCN(CC1CCCCC1)C2` [Compound 5, (S)-2-(tert-butoxy)-2-(5-(2-(cyclohexylmethyl)-1,2,3,4-tetrahydroisoquinolin-6-yl)-4-(4,4-dimethylpiperidin-1-yl)-2,6-dimethylpyridin-3-yl)acetic acid]: less than 0.1 µM.
As for `Cc1nc(C)c([C@H](OC(C)(C)C)C(=O)O)c(N2CCC(C)(C)CC2)c1-c1ccc2c(c1)CCN(Cc1ccc(=O)[nH]c1)C2` [Compound 52, (S)-2-(tert-butoxy)-2-(4-(4,4-dimethylpiperidin-1-yl)-2,6-dimethyl-5-(2-((6-oxo-1,6-dihydropyridin-3-yl)methyl)-1,2,3,4-tetrahydroisoquinolin-6-yl)pyridin-3-yl)acetic acid], the EC50 (read-out: Activity) lay within 0.1 to 1 µM.
`COc1ncc(CN2CCc3cc(-c4c(C)nc(C)c([C@H](OC(C)(C)C)C(=O)O)c4N4CCC(C)(C)CC4)ccc3C2)cn1` [Compound 33, (S)-2-(tert-butoxy)-2-(4-(4,4-dimethylpiperidin-1-yl)-5-(2-((2-methoxypyrimidin-5-yl)methyl)-1,2,3,4-tetrahydroisoquinolin-6-yl)-2,6-dimethylpyridin-3-yl)acetic acid]: the EC50 runs as follows: (read-out: Activity) less than 0.1 µM; (read-out: EC50 μM) 0.008 µM.
The like results for `Cc1nc(C)c([C@H](OC(C)(C)C)C(=O)O)c(N2CCC(C)(C)CC2)c1-c1ccc2c(c1)CCN(CC1CCCOC1)C2` (stereo partly drawn) [Compound 1, (2S)-2-(tert-butoxy)-2-(4-(4,4-dimethylpiperidin-1-yl)-2,6-dimethyl-5-(2-((tetrahydro-2H-pyran-3-yl)methyl)-1,2,3,4-tetrahydroisoquinolin-6-yl)pyridin-3-yl)acetic acid] were, in that order, less than 0.1 µM and 0.028 µM.
On the same counts, the results for `CCc1ncc(CN2CCc3cc(-c4c(C)nc(C)c([C@H](OC(C)(C)C)C(=O)O)c4N4CCC(C)(C)CC4)ccc3C2)[nH]1` [Compound 21, (S)-2-(tert-butoxy)-2-(4-(4,4-dimethylpiperidin-1-yl)-5-(2-((2-ethyl-1H-imidazol-5-yl)methyl)-1,2,3,4-tetrahydroisoquinolin-6-yl)-2,6-dimethylpyridin-3-yl)acetic acid] are more than 1 µM and 1.54 µM.
Regarding `Cc1nc(C)c([C@H](OC(C)(C)C)C(=O)O)c(N2CCC(C)(C)CC2)c1-c1ccc2c(c1)CCN(Cc1ccncc1)C2` [Compound 12, (S)-2-(tert-butoxy)-2-(4-(4,4-dimethylpiperidin-1-yl)-2,6-dimethyl-5-(2-(pyridin-4-ylmethyl)-1,2,3,4-tetrahydroisoquinolin-6-yl)pyridin-3-yl)acetic acid], under “read-out: Activity”, the EC50 is less than 0.1 µM.
The same measure, in the same setting: the same measure for `Cc1cc(CN2CCc3cc(-c4c(C)nc(C)c([C@H](OC(C)(C)C)C(=O)O)c4N4CCC(C)(C)CC4)ccc3C2)n(C)n1` [Compound 16, (S)-2-(tert-butoxy)-2-(5-(2-((1,3-dimethyl-1H-pyrazol-5-yl)methyl)-1,2,3,4-tetrahydroisoquinolin-6-yl)-4-(4,4-dimethylpiperidin-1-yl)-2,6-dimethylpyridin-3-yl)acetic acid]: less than 0.1 µM; for `CCn1cc(CN2CCc3cc(-c4c(C)nc(C)c([C@H](OC(C)(C)C)C(=O)O)c4N4CCC(C)(C)CC4)ccc3C2)cn1` [Compound 44, (S)-2-(tert-butoxy)-2-(4-(4,4-dimethylpiperidin-1-yl)-5-(2-((1-ethyl-1H-pyrazol-4-yl)methyl)-1,2,3,4-tetrahydroisoquinolin-6-yl)-2,6-dimethylpyridin-3-yl)acetic acid]: less than 0.1 µM; for `Cc1nc(C)c([C@H](OC(C)(C)C)C(=O)O)c(N2CCC(C)(C)CC2)c1-c1ccc2c(c1)CCN(Cc1ccn[nH]1)C2` [Compound 26, (S)-2-(5-(2-((1H-pyrazol-5-yl)methyl)-1,2,3,4-tetrahydroisoquinolin-6-yl)-4-(4,4-dimethylpiperidin-1-yl)-2,6-dimethylpyridin-3-yl)-2-(tert-butoxy)acetic acid]: less than 0.1 µM.
Still for that read-out and setting: with `Cc1nc(C)c([C@H](OC(C)(C)C)C(=O)O)c(N2CCC(C)(C)CC2)c1-c1ccc2c(c1)CCN(CC1CC1)C2` [Compound 4, (S)-2-(tert-butoxy)-2-(5-(2-(cyclopropylmethyl)-1,2,3,4-tetrahydroisoquinolin-6-yl)-4-(4,4-dimethylpiperidin-1-yl)-2,6-dimethylpyridin-3-yl)acetic acid] the figure was less than 0.1 µM.
As for `Cc1nc(C)c([C@H](OC(C)(C)C)C(=O)O)c(N2CCC(C)(C)CC2)c1-c1ccc2c(c1)CCN(Cc1nccn1C)C2` [Compound 38, (S)-2-(tert-butoxy)-2-(4-(4,4-dimethylpiperidin-1-yl)-2,6-dimethyl-5-(2-((1-methyl-1H-imidazol-2-yl)methyl)-1,2,3,4-tetrahydroisoquinolin-6-yl)pyridin-3-yl)acetic acid], the EC50 (read-out: Activity) was less than 0.1 µM.
The same measure, in the same setting: with `Cc1nc(C)c([C@H](OC(C)(C)C)C(=O)O)c(N2CCC(C)(C)CC2)c1-c1ccc2c(c1)CCN(Cc1ccc(Cl)nc1Cl)C2` [Compound 32, (S)-2-(tert-butoxy)-2-(5-(2-((2,6-dichloropyridin-3-yl)methyl)-1,2,3,4-tetrahydroisoquinolin-6-yl)-4-(4,4-dimethylpiperidin-1-yl)-2,6-dimethylpyridin-3-yl)acetic acid] the figure was less than 0.1 µM; with `Cc1nc(CN2CCc3cc(-c4c(C)nc(C)c([C@H](OC(C)(C)C)C(=O)O)c4N4CCC(C)(C)CC4)ccc3C2)c(C)o1` [Compound 18, (S)-2-(tert-butoxy)-2-(5-(2-((2,5-dimethyloxazol-4-yl)methyl)-1,2,3,4-tetrahydroisoquinolin-6-yl)-4-(4,4-dimethylpiperidin-1-yl)-2,6-dimethylpyridin-3-yl)acetic acid], less than 0.1 µM; with `Cc1cc(CN2CCc3cc(-c4c(C)nc(C)c([C@H](OC(C)(C)C)C(=O)O)c4N4CCC(C)(C)CC4)ccc3C2)no1` [Compound 13, (S)-2-(tert-butoxy)-2-(4-(4,4-dimethylpiperidin-1-yl)-2,6-dimethyl-5-(2-((5-methylisoxazol-3-yl)methyl)-1,2,3,4-tetrahydroisoquinolin-6-yl)pyridin-3-yl)acetic acid], less than 0.1 µM.
On the same count and under the same terms, the same measure for `Cc1nc(C)c([C@H](OC(C)(C)C)C(=O)O)c(N2CCC(C)(C)CC2)c1-c1ccc2c(c1)CCN(C[C@H]1C[C@H]3C=C[C@@H]1C3)C2` [Compound 6, (S)-2-(5-(2-((1S,2S,4S)-bicyclo[2.2.1]hept-5-en-2-ylmethyl)-1,2,3,4-tetrahydroisoquinolin-6-yl)-4-(4,4-dimethylpiperidin-1-yl)-2,6-dimethylpyridin-3-yl)-2-(tert-butoxy)acetic acid]: less than 0.1 µM; for `Cc1nc(C)c([C@H](OC(C)(C)C)C(=O)O)c(N2CCC(C)(C)CC2)c1-c1ccc2c(c1)CCN(Cc1nn(C)cc1Cl)C2` [Compound 24, (S)-2-(tert-butoxy)-2-(5-(2-((4-chloro-1-methyl-1H-pyrazol-3-yl)methyl)-1,2,3,4-tetrahydroisoquinolin-6-yl)-4-(4,4-dimethylpiperidin-1-yl)-2,6-dimethylpyridin-3-yl)acetic acid]: less than 0.1 µM; for `Cc1noc(C)c1CN1CCc2cc(-c3c(C)nc(C)c([C@H](OC(C)(C)C)C(=O)O)c3N3CCC(C)(C)CC3)ccc2C1` [Compound 23, (S)-2-(tert-butoxy)-2-(5-(2-((3,5-dimethylisoxazol-4-yl)methyl)-1,2,3,4-tetrahydroisoquinolin-6-yl)-4-(4,4-dimethylpiperidin-1-yl)-2,6-dimethylpyridin-3-yl)acetic acid]: less than 0.1 µM.
Same read-out and setting: the same measure for `COc1ccc(CN2CCc3cc(-c4c(C)nc(C)c([C@H](OC(C)(C)C)C(=O)O)c4N4CCC(C)(C)CC4)ccc3C2)c(OC)n1` [Compound 49, (S)-2-(tert-butoxy)-2-(5-(2-((2,6-dimethoxypyridin-3-yl)methyl)-1,2,3,4-tetrahydroisoquinolin-6-yl)-4-(4,4-dimethylpiperidin-1-yl)-2,6-dimethylpyridin-3-yl)acetic acid]: less than 0.1 µM.
